The subject of the data set is Spodoptera littoralis (Egyptian cotton leaf worm). Put plainly: Spodoptera littoralis (Egyptian cotton leaf worm) feeding/contact activity assay, mortality on cotton leaf discs; synergy by COLBY formula. Type of data set: in vivo. An excerpt: A synergistic effect exists whenever the action of an active ingredient combination is greater than the sum of the actions of the individual components. The action to be expected E for a given active ingredient combination obeys the so-called COLBY formula and can be calculated as follows (COLBY, S.R. “Calculating synergistic and antagonistic responses of herbicide combination”. Weeds, Vol. 15, pages 20-22 1967): • ppm=milligrams of active ingredient (a.i.) per liter • X=% action by first active ingredient using p ppm of the active ingredient • Y=% action by second active ingredient using q ppm of the active ingredient.
According to Colby, the expected (additive) action of active ingredients A+B using p+q ppm of active
If the action actually observed O is greater than the expected action E, then the action of the combination is super-additive, i.e. there is a synergistic effect. In mathematical terms, synergism corresponds to a positive value for the difference of (O-E). In the case of purely complementary addition of activities (expected activity), said difference (O-E) is zero. A negative value of said difference (O-E) signals a loss of activity compared to the expected activity.
The synergistic biological activity of combinations of component (A) and component (B) as disclosed herein was assessed using a Spodoptera littoralis (Egyptian cotton leaf worm) feeding/contact activity assay. Cotton leaf discs were placed onto agar in 24-well microtiter plates and sprayed with aqueous test solutions prepared from 10′000 ppm DMSO stock solutions. After drying the leaf discs were infested with L1 larvae. The samples were assessed for mortality 3 days after infestation.

The mark [1] stands for this setting: Spodoptera littoralis, foliar, 72 h, read-out: Mortality (%) Observed (%).
Where [2] appears, read: single component alone at 7.8125 mg/L, 3 days after infestation.
Setting [3] is: single component alone at 15.625 mg/L, 3 days after infestation.
The mark [4] stands for this setting: single component alone at 1.95312 mg/L, 3 days after infestation.
[5] abbreviates: single component alone at 3.90625 mg/L, 3 days after infestation.
Where [6] appears, read: single component alone at 31.25 mg/L, 3 days after infestation.
The mark [7] stands for this setting: single component alone at 62.5 mg/L, 3 days after infestation.
[8] abbreviates: single component alone at 125 mg/L, 3 days after infestation.
Setting [9] is: single component alone at 250 mg/L, 3 days after infestation.

Molecules are shown by their SMILES. Where two headings read alike, the source gives them in different places.

Regarding `CCC(=O)NCc1ccc(C2=NO[C@@](c3cc(Cl)c(F)c(Cl)c3)(C(F)(F)F)C2)c2c1OCC2` [A-1, N-[[4-[(5S)-5-(3,5-dichloro-4-fluorophenyl)-5-(trifluoromethyl)-4H-isoxazol-3-yl]-2,3-dihydrobenzofuran-7-yl]methyl]propanamide], under setting [1], the mortality (as a rule, the percentage killed) at 0.0078125 µg/mL amounted to 0%; the mortality at 0.015625 µg/mL was found to be 0%; the mortality at 0.03125 µg/mL amounted to 0%; the mortality at 0.0625 µg/mL came to 80%. For the same compound, the mortality at 0.125 µg/mL under setting [1] turned out to be 100%.
Take `CC1(NC(=O)c2cccc3nn(-c4cccnc4)cc23)CC1` [B-4, indazapyroxamet]: the “Mortality (%) Observed (%)” value is listed as 0% under setting [2] and 0% under setting [3].
As for `C[n+]1c([O-])c(-c2ccccc2)c(=O)n2c1SC[C@@H]2c1cnc(Cl)s1` [B-5, fenmezoditiaz], the “Mortality (%) Observed (%)” value runs as follows: (single component alone at 0.488281 mg/L, 3 days after infestation) 0%; (single component alone at 0.976562 mg/L, 3 days after infestation) 0%; under setting [4], 0%; under setting [5], 0%; under setting [2], 0%.
Take `CCS(=O)(=O)c1cccnc1-c1cnc(OCC(F)(F)C(F)(F)F)cn1` [B-17, 2-(3-ethylsulfonyl-2-pyridyl)-5-(2,2,3,3,3-pentafluoropropoxy)pyrazine]: for the setting “Spodoptera littoralis, foliar, 72 h, single component alone at 0.0390625 mg/L, 3 days after infestation, read-out: Mortality (%) Observed (%)”, the mortality at 0.0390625 µg/mL was 0%. Besides, the mortality at 0.078125 µg/mL (Spodoptera littoralis, foliar, 72 h, single component alone at 0.078125 mg/L, 3 days after infestation, read-out: Mortality (%) Observed (%)) is 0%. Moreover, the mortality at 0.15625 µg/mL (Spodoptera littoralis, foliar, 72 h, single component alone at 0.15625 mg/L, 3 days after infestation, read-out: Mortality (%) Observed (%)) amounted to 0%. Where the note is “Spodoptera littoralis, foliar, 72 h, single component alone at 0.3125 mg/L, 3 days after infestation, read-out: Mortality (%) Observed (%)”, the mortality at 0.3125 µg/mL amounted to 0%. Under “Spodoptera littoralis, foliar, 72 h, single component alone at 0.625 mg/L, 3 days after infestation, read-out: Mortality (%) Observed (%)”, the mortality at 0.625 µg/mL worked out at 0%. Besides, the mortality at 1.25 µg/mL (Spodoptera littoralis, foliar, 72 h, single component alone at 1.25 mg/L, 3 days after infestation, read-out: Mortality (%) Observed (%)) stood at 0%. Also, the mortality at 2.5 µg/mL (Spodoptera littoralis, foliar, 72 h, single component alone at 2.5 mg/L, 3 days after infestation, read-out: Mortality (%) Observed (%)) is 20%.
On to `CN/C(=N\[N+](=O)[O-])NCc1cnc(Cl)s1` [B-38, clothianidin], for which, under setting [1], the mortality at 0.15625 µg/mL is 0%, the mortality at 0.3125 µg/mL came out at 0%, the mortality at 0.625 µg/mL is 0% and the mortality at 1.25 µg/mL worked out at 0%. Under setting [1], the mortality at 2.5 µg/mL came to 0%.
With `CNC(=O)c1cc(Cl)cc(C)c1NC(=O)c1cc(Br)nn1-c1ncccc1Cl` [B-43, chlorantraniliprole], under setting [1], the mortality at 0.00390625 µg/mL amounted to 0%, the mortality at 0.0078125 µg/mL is 0%, the mortality at 0.015625 µg/mL came out at 0% and the mortality at 0.03125 µg/mL is 0%. For the same compound, under setting [1], the mortality at 0.0625 µg/mL is 0% and the mortality at 0.125 µg/mL amounted to 0%.
As to `CC1(C)C(C=C(Cl)Cl)C1C(=O)OC(C#N)c1cccc(Oc2ccccc2)c1` (stereo not drawn) [B-46, alpha-cypermethrin], under setting [1], the mortality at 0.015625 µg/mL is 0%, the mortality at 0.03125 µg/mL came out at 0%, the mortality at 0.0625 µg/mL came out at 0% and the mortality at 0.125 µg/mL stood at 0%. In addition, under setting [1], the mortality at 0.25 µg/mL stood at 0% and the mortality at 0.5 µg/mL stood at 60%.
Turning to `CCN(C(=O)c1cnn(C(C)C(C)C)c1C)c1ccnnc1` (stereo not shown) [B-133, dimpropyridaz], the “Mortality (%) Observed (%)” value under setting [3] was 0%; the “Mortality (%) Observed (%)” value under setting [6] worked out at 0%; the “Mortality (%) Observed (%)” value under setting [7] came to 0%; the “Mortality (%) Observed (%)” value under setting [8] is on record as 0%; the “Mortality (%) Observed (%)” value under setting [9] was found to be 0%.
Take `C[C@]1(COC(=O)C2CC2)[C@@H]2C[C@H](O)[C@@]3(C)Oc4cc(-c5cccnc5)oc(=O)c4[C@H](O)[C@@H]3[C@@]2(C)CC[C@@H]1OC(=O)C1CC1` [B-134, afidopyropen]: the “Mortality (%) Observed (%)” value reads like this: under setting [4], 0%; under setting [5], 0%; under setting [2], 0%; under setting [3], 0%; under setting [6], 0%; under setting [7], 0%. In addition, the “Mortality (%) Observed (%)” value under setting [8] was determined as 0% and the “Mortality (%) Observed (%)” value under setting [9] amounted to 0%.

For the origin of these results see patent US20250143304A1, “INSECT, ACARINA AND NEMATODE PEST CONTROL” (SYNGENTA CROP PROTECTION AG, priority 2022, published 2025).
